The test system of data set [1] is syngeneic colo26 tumour implanted subcutaneously. As to the kind of experiment: Tumour PDT activity (tumour necrosis) in mouse implanted colorectal tumour model.
Excerpt: Information on the tumour PDT activity have been obtained in the aforementioned mouse model bearing the syngeneic colo26 tumour implanted subcutaneously at the top of the left hind leg (approximately 1 cm lateral to the spine). The tumours were used after 12 to 16 days when they had reached an average diameter of 8 to 10 mm. For drug injection and irradiation animals were sedated with Hypnorm diluted in water (1:3).
The subject of another data set is Balb/c mice. The experiment in a line: Cutaneous photosensitivity (ear thickness after xenon light irradiation). Format: in vivo. The following applies: 0.88 μmol kg^−1, 40 Joules per cm^2 xenon light. As to the method: Cutaneous photosensitivity was determined in adult female Balb/c mice, held under standard conditions and allowed access to food and water ad libitum. […] Each mouse was weighed immediately before injection and the injected volume adjusted to give the correct dose.
At 24 or 72 hours after photosensitiser injection one ear of each mouse was irradiated with full-spectrum xenon light from a 1 KW clinical photo-irradiator (Model UV-90, Applied Photophysics, London). The light was delivered to the ear using a 7 mm diameter light guide (Serial SU3) placed lightly against the ear. The light dose given was 40 Joules per cm^2, which was achieved by exposing the ear for 63 seconds to 245 mW of light from the light guide having a contact area of 0.384 cm^2. The light guide filtered infra-red and ultra-violet light, so as to minimise heating of the ear and damage resulting from ultra-violet light irradiation.
Animals treated with light at the 24 or 72 hour drug-light intervals were killed at 48 or 24 hours respectively after irradiation of the ears. The oedema of the irradiated and control ears was assessed by measuring ear thickness. The thickness of the ear was measured at three sites on the upper third of the ear using a fixed-force micrometer with a vernier-interpolated resolution of 2 μm and an accuracy of 10 μm (Neill instruments).

Data set [2] is described as follows: Spectroscopic properties (absorbance, fluorescence). The class given is physicochemical. The conditions noted are these: for Fluorescence in aqueous solution relative to ethanol: excited at 405 nm, indicates aggregation in water; for Molar extinction coefficient at the red peak: red absorption peak.
A further data set concerns tumour and muscle. The conditions noted are these: cited from earlier work.
For data set [3], the system named is Colo26 mouse colorectal tumour cells. The experiment in a line: Uptake by Colo26 tumour cells in culture. The class given is cell-based. The following applies: 1.5 μM; for 6 hour uptake (millions of molecules per cell) / 24 hour uptake (millions of molecules per cell) / Rate of uptake 6-24 h (thousands of molecules per cell per hour): Colo26 cells. As to the method: Colo26 mouse colorectal tumour cells were grown in culture using standard methods. […] At the end of the set time period, the culture medium containing the added photosensitiser was removed and the cells washed with cold phosphate buffered saline. The cells were freed from the culture flask by treatment with trypsin solution. The viable cell count was determined using a standard haemocytometer and the photosensitiser extracted from the cells by treatment with methanol:DMSO (4:1, v:v). Cell extracts were frozen in liquid nitrogen and stored at −70° C. for later analysis. The photosensitiser content of the cell extract was determined by direct fluorescence using standard curves of photosensitiser and correcting for extraction efficiency from the cell suspension. […] (millions of molecules per cell, m against time t (hours)). […] The uptake of m-THPC is rapid, reaching a peak around 24 hours after which the photosensitiser content of the cells declines. […] However, the amount of photosensitiser taken up is greater. […] The mechanism of photosensitiser uptake by cells remains a subject of study. In the case of small hydrophobic sensitisers such as m-THPC, which are generally presented to cells bound to protein or lipoprotein in biological systems, a role for specific lipoprotein receptors has been implicated. […] One way in which uptake mechanisms may be studied is by determining the influence of temperature. In general, active (energy-dependent) uptake processes are inhibited in cells maintained at 4° C. compared to those at 37° C. Passive (energy-independent) uptake processes are much less temperature-dependent.

Data set [4] relates to syngeneic colo26 tumour implanted subcutaneously. The conditions noted are these: 4.4 μmol kg^−1; drug-light interval 72 hours; light 652 nm; cited from earlier work.
Data set [5] is described as follows: Plasma and tissue photosensitiser concentrations in tumour-bearing mice. The method, then: Adult female Balb/c mice bearing the syngeneic colo26 tumour implanted subcutaneously were produced using methods previously described (Ansell et al. Lasers in Medical Science 1997, 12, 336-41). Groups of mice of weight 19-22 g were given the photosensitisers at a dose of 0.88 μmol kg^−1 (equivalent to 0.6 mg kg^−1 in the case of m-THPC) by injection into the tail vein. The solutions for injection of each compound were prepared at a concentration of 0.352 μmol ml^−1 so that a typical 20 g mouse would be injected with a volume of 50 μl.
Animals were sacrificed at 6, 24, 72 and 192 hours after injection of each photosensitiser. Immediately after sacrifice, blood was obtained by cardiac puncture, and centrifuged at 13,000×g for three minutes. The resulting supernatant (blood plasma) was aspirated and stored at −70° C. for subsequent analysis. The photosensitiser content of each sample was measured from the fluorescence of an extract obtained using methanol:DMSO (3:5, v:v). A 50 μl portion of each extract was transferred to a disposable fluorescence cuvette and the fluorescence determined using an excitation wavelength of 418 nm and emission wavelength of 650 nm with an eight second response setting. The assay was calibrated using stock solutions of each compound in methanol, further diluted in methanol:water (1:1, v/v) and extracted with methanol:DMSO as described above. […] The measurement protocol was designed to dilute each sample to a sufficient extent to avoid interference by endogenous chromophores (absorbance of samples <<0.1 at the excitation wavelength).
The selectivity for tumour specific tissue distribution was also evaluated in this work. Tissue selectivity was evaluated as the tumour:muscle concentration ratio over the duration of the observation period (4-192 hours post-administration). This ratio provided a direct measure of the normal tissue to tumour tissue differential in concentrations and allows selection of an optimal treatment time for PDT that minimises the potential to cause collateral damage of normal tissues.

The nature of a further data set: Solubility in water. Format: physicochemical.
The conditions of data set [6]: usual clinical dose of 0.15 mg kg^−1; cited from earlier work.
Setting [7] is: 0.88 μmol kg^−1 i.v., 6-192 hours.

Consider “tetrakis (ω-methoxypolyethylene glycol [MW=2000] triazine of 7,8-dihydro-5,10,15,20-tetrakis(3-hydroxyphenyl)porphyrin [SPC 0038B]”, for which, in data set [1] (optimal drug-light interval of 72 hours, dose level and degree of tumour necrosis basis), the “Fold less potency in comparison to SPC 0172 and m-THPC” value was 10-20 fold. In addition, the “Differences in ear thickness (irradiated-control), Mean” value (“Differences in ear thickness” for short) in the data set with Balb/c mice (24 h drug-light interval) is 25 μm. In the data set on Balb/c mice (72 h drug-light interval), the “Differences in ear thickness” value stood at 4 μm. Further, the “Fluorescence in aqueous solution relative to ethanol” value in [2] was found to be 47%. The “Time for which tumour retained maximum sensitivity to light” value with tumour and muscle (after drug administration, mouse model) is “at least 15 days”. Besides, the “Time of peak concentration in muscle” value in the data set on tumour and muscle (after injection) is ≤ 72 h. Besides, the Muscle photosensitivity result with tumour and muscle (three days after administration, mouse model) is reported as “no longer photosensitive”. Moreover, the “PDT treatment times with sustained PDT tumour necrosis” value in the data set on tumour and muscle (tumour bioactivity) is 4 to 15 days. Also, the “Uptake in the cold compared with 37° C.” value in data set [3] (4° C. versus 37° C.) was “twice as great in the cold than at 37 °C”. For the same compound, in [3] (4° C.), the “6 hour uptake (millions of molecules per cell)” value is 0.56 millions of molecules per cell, the “24 hour uptake (millions of molecules per cell)” value was 0.64 millions of molecules per cell and the “Rate of uptake 6-24 h (thousands of molecules per cell per hour)” value is on record as 4 thousands of molecules per cel. Besides, in [3] (37° C.), the “6 hour uptake (millions of molecules per cell)” value is 0.82 millions of molecules per cell, the “24 hour uptake (millions of molecules per cell)” value is listed as 0.86 millions of molecules per cell and the “Rate of uptake 6-24 h (thousands of molecules per cell per hour)” value was 2 thousands of molecules per cel. Also, in data set [3] (after 72 hours incubation, 37° C.), the “Cell photosensitiser content, factor less than that of m-THPC” value is recorded as ~100. Besides, the “Biological effect (mm of tumour necrosis)” value in data set [4] is given as 3.3 ± 0.7 ^1 mm. Moreover, the “Excretion from the liver” value in data set [5] (mouse, in vivo) is “more slowly than m-THPC”.

Regarding `Oc1cccc(-c2c3nc(c(-c4cccc(O)c4)c4ccc([nH]4)c(-c4cccc(O)c4)c4nc(c(-c5cccc(O)c5)c5ccc2[nH]5)CC4)C=C3)c1` [m-THPC, 7,8-dihydro-5,10,15,20-tetrakis(3-hydroxyphenyl)porphyrin], in “Solubility in water” (water), the Solubility in water entry was “insoluble”. The Solubility in water result in the data set “Solubility in water” (water / aqueous solvents) is on record as “insoluble in aqueous solvents”. Further, the “Duration of skin sensitivity” value in data set [6] is given as 2-3 weeks. The “Differences in ear thickness” value in the data set on Balb/c mice (24 h drug-light interval) was 41 μm. In the data set on Balb/c mice (72 h drug-light interval), the “Differences in ear thickness” value was determined as 2 μm. In addition, in [2], the “Fluorescence in aqueous solution relative to ethanol” value is “severely quenched” and the “Molar extinction coefficient at the red peak” value is recorded as ~30,000 L mol^−1 cm^−1. Besides, the “Inhibition of uptake at 4° C., factor” value in data set [3] (4° C. versus 37° C.) is reported as “over 250”. For the same compound, in [3] (4° C.), the “6 hour uptake (millions of molecules per cell)” value is 0.82 millions of molecules per cell, the “24 hour uptake (millions of molecules per cell)” value is 1.33 millions of molecules per cell and the “Rate of uptake 6-24 h (thousands of molecules per cell per hour)” value is recorded as 28 thousands of molecules per cel. For the same compound, in data set [3] (37° C.), the “Time of peak uptake by tumour cells” value is recorded as “around 24 hours”, the “6 hour uptake (millions of molecules per cell)” value was 79.2 millions of molecules per cell, the “24 hour uptake (millions of molecules per cell)” value is 208 millions of molecules per cell and the “Rate of uptake 6-24 h (thousands of molecules per cell per hour)” value is listed as 7184 thousands of molecules per cel.

Take “tetrakis (6′-(methoxy PEG 2000 carbamate)1′-isocyanate hexamethylene) derivative of 7,8dihydro-5,10,15,20-tetrakis(3-hydroxyphenyl)porphyrin [SPC 0172]”: in data set [1] (Balb/c mice bearing colo26), the “PDT activity compared with m-THPC” value was “same PDT activity as m-THPC” and the “Time of maximum photodynamic effect in tumour” value amounted to 2 days. Also, in data set [1] (particularly at the two day drug-light interval), the “Damage of surrounding skin and underlying muscle at treated sites” value is “only limited damage of the surrounding skin and underlying muscle”. Further, in [1] (same dose (1.76 μmol kg^−1), light dose 20 J cm^−2, all drug-light intervals up to 72 hours), the “Tumour damage at a range of drug-light intervals” value is reported as “Full thickness tumour damage”. Moreover, the “Differences in ear thickness” value in the data set on Balb/c mice (24 h drug-light interval) was found to be 2 μm. Besides, the “Differences in ear thickness” value in the data set with Balb/c mice (72 h drug-light interval) is 0 μm. In addition, in data set [2], the “Fluorescence in aqueous solution relative to ethanol” value worked out at 36% and the “Molar extinction coefficient at the red peak” value is given as ~22,000 L mol^−1 cm^−1. In addition, the “Uptake on cooling as share of that at 37° C.” value in [3] (4° C. versus 37° C.) was “about 75%”. In [3] (4° C.), the “6 hour uptake (millions of molecules per cell)” value is 1.08 millions of molecules per cell, the “24 hour uptake (millions of molecules per cell)” value is reported as 1.78 millions of molecules per cell and the “Rate of uptake 6-24 h (thousands of molecules per cell per hour)” value is 39 thousands of molecules per cel. Further, in data set [3] (37° C.), the “6 hour uptake (millions of molecules per cell)” value is 1.12 millions of molecules per cell, the “24 hour uptake (millions of molecules per cell)” value was 2.08 millions of molecules per cell and the “Rate of uptake 6-24 h (thousands of molecules per cell per hour)” value is 53 thousands of molecules per cel. Also, in data set [3] (after 72 hours of incubation, 37° C.), the “Cell photosensitiser content, times as much as SPC 0038B” value is given as “about 5”. For the same compound, in [5] (setting [7]), the Liver photosensitiser levels result is “lower and eliminated more quickly”; the Plasma concentration-time profile entry is “lower absolute levels and more rapid elimination”; the Skin photosensitiser concentrations entry is listed as “low throughout the 6-192 hour measurement period”. Moreover, the “Tumour:muscle concentration ratio” value in [5] (72 hours post-administration, 0.88 μmol kg^−1 i.v.) is on record as “about 7.5”. Moreover, in [5] (post-administration, 0.88 μmol kg^−1 i.v.), the “Time of optimal tumour:muscle concentration ratio” value stood at 72 h.

These data come from patent publication US7375215B2, “Compounds for PDT” (Bioscience Technology Investment Holdings Limited, priority 2000, dated 2008).
